# Molecular target: human NaV subtype, like NaV 1.7 (Homo sapiens, UniProt Q15858)
# Experiment: E-VIPR optical membrane potential assay with electrical stimulation
# Format: cell-based
# Details: active against one or more sodium channels; Table 3 does not name the assay or NaV subtype; read-out: Binned Activity Data (IC50)
# Sequence of human NaV subtype, like NaV 1.7 (Q15858 whole entry): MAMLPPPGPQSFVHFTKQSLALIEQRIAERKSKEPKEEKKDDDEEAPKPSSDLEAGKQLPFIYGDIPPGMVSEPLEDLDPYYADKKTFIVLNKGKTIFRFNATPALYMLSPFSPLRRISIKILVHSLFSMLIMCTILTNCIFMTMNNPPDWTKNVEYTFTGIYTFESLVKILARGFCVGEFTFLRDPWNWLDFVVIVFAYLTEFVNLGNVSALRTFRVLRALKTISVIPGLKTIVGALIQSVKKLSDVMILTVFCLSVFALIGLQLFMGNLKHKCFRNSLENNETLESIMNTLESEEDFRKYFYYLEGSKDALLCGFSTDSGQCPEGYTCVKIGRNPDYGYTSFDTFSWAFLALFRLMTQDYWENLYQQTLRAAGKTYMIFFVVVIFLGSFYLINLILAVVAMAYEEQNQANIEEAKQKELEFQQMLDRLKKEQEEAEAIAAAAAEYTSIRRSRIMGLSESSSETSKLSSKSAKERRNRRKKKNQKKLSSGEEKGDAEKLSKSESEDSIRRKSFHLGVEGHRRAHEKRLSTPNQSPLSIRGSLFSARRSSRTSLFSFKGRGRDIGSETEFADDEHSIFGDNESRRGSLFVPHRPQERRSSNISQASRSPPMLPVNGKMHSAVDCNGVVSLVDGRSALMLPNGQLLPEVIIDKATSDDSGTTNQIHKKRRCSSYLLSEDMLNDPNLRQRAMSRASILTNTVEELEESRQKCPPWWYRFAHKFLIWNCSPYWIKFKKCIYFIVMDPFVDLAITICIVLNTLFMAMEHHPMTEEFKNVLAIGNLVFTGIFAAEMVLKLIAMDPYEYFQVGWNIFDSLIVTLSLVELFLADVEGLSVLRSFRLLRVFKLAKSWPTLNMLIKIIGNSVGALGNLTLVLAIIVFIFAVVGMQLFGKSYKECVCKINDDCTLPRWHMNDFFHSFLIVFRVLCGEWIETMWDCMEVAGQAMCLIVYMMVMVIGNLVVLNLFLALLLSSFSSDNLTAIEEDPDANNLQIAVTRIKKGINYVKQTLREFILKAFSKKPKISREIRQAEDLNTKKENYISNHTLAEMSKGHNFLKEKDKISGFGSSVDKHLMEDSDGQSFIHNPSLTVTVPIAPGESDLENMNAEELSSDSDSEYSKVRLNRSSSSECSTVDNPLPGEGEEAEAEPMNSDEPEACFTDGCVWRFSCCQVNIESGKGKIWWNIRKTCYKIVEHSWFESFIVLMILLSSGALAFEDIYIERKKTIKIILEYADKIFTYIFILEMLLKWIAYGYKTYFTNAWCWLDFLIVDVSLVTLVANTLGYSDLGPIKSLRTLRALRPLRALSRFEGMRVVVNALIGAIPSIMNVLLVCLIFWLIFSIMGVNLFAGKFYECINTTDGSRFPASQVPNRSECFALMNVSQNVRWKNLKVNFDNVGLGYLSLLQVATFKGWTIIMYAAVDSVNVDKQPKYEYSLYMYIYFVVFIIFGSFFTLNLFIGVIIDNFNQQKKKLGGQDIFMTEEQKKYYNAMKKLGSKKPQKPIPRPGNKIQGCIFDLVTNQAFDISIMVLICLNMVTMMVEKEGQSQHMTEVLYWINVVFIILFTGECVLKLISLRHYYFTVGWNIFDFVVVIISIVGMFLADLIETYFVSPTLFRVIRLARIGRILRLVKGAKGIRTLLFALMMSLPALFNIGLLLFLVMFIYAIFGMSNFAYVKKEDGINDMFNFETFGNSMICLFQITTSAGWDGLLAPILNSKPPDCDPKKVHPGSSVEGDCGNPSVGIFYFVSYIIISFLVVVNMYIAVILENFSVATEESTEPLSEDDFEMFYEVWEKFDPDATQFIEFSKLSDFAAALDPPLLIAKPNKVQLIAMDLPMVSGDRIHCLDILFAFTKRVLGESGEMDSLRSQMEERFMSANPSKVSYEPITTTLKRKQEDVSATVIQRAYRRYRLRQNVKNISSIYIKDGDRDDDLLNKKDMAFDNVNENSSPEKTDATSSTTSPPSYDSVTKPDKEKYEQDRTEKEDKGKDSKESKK
row,SMILES,IC50 [µM]
1,CC(C)Oc1ccc(C(=O)N2CCC3(CC2)c2c(Cl)cc(C(F)(F)F)n2CCN3C)c(F)c1 [Compound 602],≤ 2
2,O=C(c1ccccc1-c1ccccc1)N1CCC2(CC1)NCCn1c(C(F)(F)F)ccc12 [Compound 603],> 5
3,CC(=O)c1ccc2n1CCN(C)C21CCN(C(=O)c2ccc(OCc3ccccc3)cc2)CC1 [Compound 604],≤ 2
4,COc1ncc(F)cc1C(=O)N1CCC2(CC1)c1ccc(C(F)(F)F)n1CCN2C [Compound 605],> 5
5,CCCOc1cc(C(=O)N2CCC3(CC2)c2ccc(C(C)=O)n2CCN3C)ccc1OC [Compound 606],> 5
6,CCC(=O)c1ccc2n1CCN(C)C21CCN(C(=O)c2ccc(OC(C)C)c(OC)c2)CC1 [Compound 607],2 to 5
7,COc1ccc(C(=O)N2CCC3(CC2)c2ccc(C(=O)C(F)(F)F)n2C[C@H](C)N3C)cc1Cl [Compound 608],≤ 2
8,CC[C@H](C)Oc1ccc(C(=O)N2CCC3(CC2)c2ccc(C(C)=O)n2CCN3C)cc1OC [Compound 609],2 to 5
9,CC(=O)c1ccc2n1CC(C)(C)NC21CCN(C(=O)c2ccc(OC(C)C)c(C(F)(F)F)c2)CC1 [Compound 610],≤ 2
10,CC(C)CCOc1ccc(C(=O)N2CCC3(CC2)NCC(C)n2c(C(=O)C(F)(F)F)ccc23)nc1 (centres unmarked) [Compound 611],≤ 2
11,COc1ccc(C(=O)N2CCC3(CC2)NC(C)(C)Cn2c(C(=O)C(F)(F)F)ccc23)cc1C [Compound 612],≤ 2
12,COc1ccc(C(=O)N2CCC3(CC2)NC(C)(C)Cn2c(C(C)=O)ccc23)cc1C [Compound 613],> 5
13,COc1cc(C(=O)N2CC[C@@]3(C[C@@H]2C)c2ccc(C(F)(F)F)n2CCN3C)ccc1OC(C)C [Compound 614],> 5
14,COCC#Cc1ccc(C(=O)N2CCC3(CC2)c2ccc(C(C)=O)n2CCN3C)cc1F [Compound 615],> 5
15,CN1CCn2c(C(F)(F)F)cc(F)c2C12CCN(C(=O)c1ccc(C(C)(C)O)c(F)c1)CC2 [Compound 616],≤ 2
16,CC(C)Oc1ccc(C(=O)N2CCC3(CC2)c2ccc(C(=O)C(C)(C)C)n2CCN3C)cc1C(F)(F)F [Compound 617],≤ 2
17,CCOc1cc(C(=O)N2CCC3(CC2)NCCn2c(C(F)(F)F)ccc23)ccc1OC [Compound 618],> 5
18,CC(C)Oc1ccc(C(=O)N2CCC3(CC2)c2ccc(C(=O)C(C)(C)C)n2CCN3C)cc1F [Compound 619],≤ 2
19,CC(C)C(=O)c1ccc2n1CCN(C)C21CCN(C(=O)c2ccc(O)c(Cl)c2)CC1 [Compound 620],2 to 5
20,Cc1cc(C(=O)N2CCC3(CC2)c2ccc(C(=O)C(F)(F)F)n2CCN3C)ccc1-c1cnc(N(C)C)nc1 [Compound 621],≤ 2
21,COc1cc(C(=O)N2CCC3(CC2)c2ccc(C(=O)N4CCC(C(C)C)CC4)n2CCN3C)ccc1OC(C)C [Compound 622],2 to 5
22,CC(=O)c1ccc2n1CCN(C)C21CCN(C(=O)c2ccc(COCCC(F)(F)F)cc2)CC1 [Compound 623],≤ 2

# Now from value to compound:
row,IC50 [µM],SMILES
1,2 to 5,COc1ccc(C(=O)N2CCC3(CC2)c2ccc(Cl)n2CCN3C)cc1C(F)(F)F [Compound 624]
2,> 5,CN1CCn2c(Cl)ccc2C12CCN(C(=O)c1ccc(C(C)(C)C)cc1)CC2 [Compound 625]
3,≤ 2,CN1CCn2c(Cl)ccc2C12CCN(C(=O)c1ccc(C3CCCCC3)cc1)CC2 [Compound 626]
4,≤ 2,CN1CCn2c(C(=O)C3CC3)ccc2C12CCN(C(=O)c1ccc(COCCC(F)(F)F)cc1)CC2 [Compound 627]
5,≤ 2,CCN(C)c1ccnc2c(C(=O)N3CCC4(CC3)c3ccc(C(F)(F)F)n3CCN4C)cnn12 [Compound 628]
6,≤ 2,CCc1ccc(C(=O)N2CCC3(CC2)c2ccc(C(F)(F)F)n2CCN3C)cc1OC [Compound 629]
7,≤ 2,Cc1cc(C(=O)N2CC[C@@]3(c4ccc(C(F)(F)F)n4CCN3C)[C@H](F)C2)ccc1C(C)(C)O [Compound 630]
8,> 5,CN1CCn2c(C(O)C(F)(F)F)ccc2C12CCN(C(=O)c1ccc(C3CCCCC3)cc1)CC2 (centres unmarked) [Compound 631]
9,≤ 2,Cc1cc(C(=O)N2CCC3(CC2)c2ccc(C(=O)c4ccccc4)n2CCN3C)ccc1O [Compound 632]
10,> 5,COc1ccc(C(=O)N2CCC3(CC2)NC(C)(C)Cn2c(C(C)=O)ccc23)cc1C(F)(F)F [Compound 633]
11,> 5,Cc1cc(C(=O)N2CCC3(CC2)c2ccc(C(F)(F)F)n2CCN3C(=O)N(C)C)ccc1C(C)(C)O [Compound 634]
12,2 to 5,CN1CCn2c(C(=O)C(F)(F)F)ccc2C12CCN(C(=O)c1ccc(O)c(Cl)c1)CC2 [Compound 635]
13,≤ 2,CCOc1ccc(C(=O)N2CCC3(CC2)NC(C)(C)Cn2c(C(=O)C(F)(F)F)ccc23)cc1Cl [Compound 636]
14,2 to 5,CN1CCn2c(C(F)(F)F)ccc2C12CCN(C(=O)c1ccc(OCC(C)(C)O)cc1)CC2 [Compound 637]
15,≤ 2,CN1CCn2c(C(=O)C(F)(F)F)ccc2C12CCN(C(=O)c1ccc(C3CCCCC3)cn1)CC2 [Compound 638]
16,≤ 2,CC(C)Oc1ccc(C(=O)N2CCC3(CC2)c2ccc(C(=O)C4CC4)n2CCN3C)cc1Cl [Compound 639]

row,IC50 [µM],SMILES
1,2 to 5,COCCOc1ccc(C(=O)N2CCC3(CC2)c2ccc(C(=O)C(F)(F)F)n2CCN3C)cc1OC [Compound 640]
2,≤ 2,CN1CCn2c(C(=O)C(C)(C)C)ccc2C12CCN(C(=O)c1ccc(O)c(Cl)c1)CC2 [Compound 641]
3,≤ 2,Cc1cc(C(=O)N2CC[C@@]3(c4ccc(C(F)(F)F)n4CCN3C)[C@H](F)C2)ccc1OC(C)C [Compound 642]
4,≤ 2,CC(=O)c1ccc2n1CC(C)(C)NC21CCN(C(=O)c2ccc(C3CCCCC3)cc2)CC1 [Compound 643]
5,≤ 2,CN1CCn2c(C(=O)C3(C)CC3)ccc2C12CCN(C(=O)c1ccc(S(=O)(=O)C(F)(F)F)cc1)CC2 [Compound 644]
6,≤ 2,CN1CCn2c(C(=O)C(F)(F)F)ccc2C12CCN(C(=O)c1ccc(OC3CCOCC3)cc1)CC2 [Compound 645]
7,≤ 2,CC(C)CCOc1ccc(C(=O)N2CCC3(CC2)c2ccc(C(=O)C(F)(F)F)n2C(C)CN3C)cc1 (centres unmarked) [Compound 646]
8,≤ 2,Cc1cc(C(=O)N2CCC3(CC2)c2ccc(C(F)(F)C(F)(F)F)n2CCN3C)ccc1C(C)(C)O [Compound 647]
9,≤ 2,Cc1nc(C(=O)N2CCC3(CC2)c2ccc(Cl)n2CCN3C)ccc1OC(C)C [Compound 648]
10,≤ 2,C[C@H]1Cn2c(C(=O)C(F)(F)F)ccc2C2(CCN(C(=O)c3ccc(S(=O)(=O)C(F)(F)F)cc3)CC2)N1C [Compound 649]
11,≤ 2,COc1cc(C(=O)N2CCC3(CC2)c2ccc(Cl)n2CCN3C)ccc1OCCOC(F)(F)F [Compound 650]
12,> 5,CN(C)c1ncccc1C(=O)N1CCC2(CC1)c1ccc(C(F)(F)F)n1CCN2C [Compound 652]
13,2 to 5,CC(=O)Nc1ccc(-c2ccc(C(=O)N3CCC4(CC3)c3ccc(C(=O)C(F)(F)F)n3CCN4C)cc2C)cn1 [Compound 653]
14,≤ 2,Cc1cc(C(=O)N2CCC3(CC2)c2ccc(C(=O)C(C)(C)C)n2CCN3C)ccc1S(=O)(=O)C(C)C [Compound 654]
15,≤ 2,CC(C)Oc1ccc(C(=O)N2CCC3(CC2)NC(C)(C)Cn2c(C(F)(F)F)ccc23)cc1F [Compound 655]

# Source: patent publication US8916565B2, “Pyrrolopyrazine-spirocyclic piperidine amides as modulators of ion channels” (priority 2011, dated 2014)
